Target: Recombinant human HSD17B13 (Homo sapiens (Human), UniProt Q7Z5P4)
Test: HSD17B13 rapid-fire mass spectrometry assay (RF/MS assay)
Assay type: biochemical
Details: inhibition of HSD17B13; LTB4 10 μM, NAD+ 0.5 mM, RT 3 h; IC50 ranges A-E
In short: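 Product 12-oxo-LTB4 and substrate LTB4 quantified by RapidFire triple-quad MS in negative mode, giving percent conversion. Reaction: 80 nM recombinant hHSD17B13, 10 μM LTB4, 0.5 mM NAD+, compound up to 100 μM, pH 7.5, RT, 3 h. Variable-slope fit gave IC50; run in duplicate.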

Sequence of Recombinant human HSD17B13 (Q7Z5P4 20-300): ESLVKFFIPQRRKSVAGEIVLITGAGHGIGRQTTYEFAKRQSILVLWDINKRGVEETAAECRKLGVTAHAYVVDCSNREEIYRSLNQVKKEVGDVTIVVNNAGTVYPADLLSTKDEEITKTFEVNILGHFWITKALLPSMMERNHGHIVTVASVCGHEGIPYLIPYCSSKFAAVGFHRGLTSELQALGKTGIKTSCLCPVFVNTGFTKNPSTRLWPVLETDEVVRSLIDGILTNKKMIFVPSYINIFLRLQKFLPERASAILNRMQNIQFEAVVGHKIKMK

IC50 [nM]	SMILES
100 to 500	CCC[C@H]1CC[C@H]([C@H]2CC[C@H](c3nc(S(=O)(=O)Nc4cc(F)c(C(=O)O)cc4OC)cs3)CC2)CC1 [Example 734]
100 to 500	COc1cc(C(=O)O)ccc1NS(=O)(=O)c1csc(/C=C/c2ccccc2)n1 [Example 167]
1000 to 100000	COc1cc(C(=O)O)ccc1NS(=O)(=O)c1csc(N2CCN(C(=O)OC(C)C)CC2)n1 [Example 309]
< 100	COc1cc(C(=O)O)c(F)cc1NS(=O)(=O)c1csc(-c2ccc(C3=CCC(C)(C)CC3)c(F)c2)n1 [Example 512]
< 100	COc1cc(C(=O)O)ccc1NS(=O)(=O)c1coc(-c2ccc(C)cc2)n1 [Example 413]
< 100	COc1cc(C(=O)O)ccc1NS(=O)(=O)c1csc(C#Cc2ccccc2C)n1 [Example 187]
1000 to 100000	COc1cc(CC(=O)O)ccc1NS(=O)(=O)c1csc(C#Cc2cccc(OC(F)(F)F)c2)n1 [Example 401, 2-(3-methoxy-4-((2-((3-(trifluoromethoxy)phenyl)ethynyl)thiazole)-4-sulfonamido)phenyl)acetic acid]
1000 to 100000	O=C(O)c1ccc2nc(NS(=O)(=O)c3cnc(-c4ccc(F)cc4)s3)sc2c1 [Example 94]
1000 to 100000	O=C(O)c1ccc(NS(=O)(=O)c2cnc(-c3ccc(F)cc3)s2)s1 [Example 77]
< 100	CCCCC[C@H]1CC[C@H](c2ccc(-c3nc(S(=O)(=O)Nc4cc(F)c(C(=O)O)cc4OC)cs3)cc2)CC1 [Example 706]
500 to 1000	COc1cc(C(=O)O)ccc1NS(=O)(=O)c1csc(-c2ccc(C#Cc3ccc(F)cc3)cc2)n1 [Example 486]
< 100	COc1cc(C(=O)O)c(F)cc1NS(=O)(=O)c1csc(-c2ccc(-c3ccc4[nH]ccc4c3)cc2)n1 [Example 638]
100 to 500	COc1cc(C(=O)O)c(F)cc1NS(=O)(=O)c1csc(-c2cnc(C3=CCC(C)(C)CC3)c(F)c2)n1 [Example 552]
100 to 500	COCCOc1c(C2=CCC(C)(C)CC2)ccc(-c2nc(S(=O)(=O)Nc3cc(F)c(C(=O)O)cc3OC)cs2)c1F [Example 577]
100 to 500	COc1cc(C(=O)O)c(F)cc1NS(=O)(=O)c1csc(-c2ccc(C3CCC(C(F)(F)F)CC3)c(OC(C)C)c2F)n1 (stereo not drawn) [Example 811]
1000 to 100000	COc1cc(C(=O)O)ccc1NS(=O)(=O)Nc1ccc2nc(-c3ccc(F)cc3)sc2c1 [Example 328, 4-((N-(2-(4-fluorophenyl)benzo[d]thiazol-6-yl)sulfamoyl)amino)-3-methoxybenzoic acid]
100 to 500	COc1cc(C(=O)O)ccc1NS(=O)(=O)c1csc(-c2ccc(C3CCCC(C)(C)C3)cc2)n1 (stereo not drawn) [Example 368]
500 to 1000	COc1cc(C(=O)O)ccc1NS(=O)(=O)c1ccc(-c2cccc(-c3ccc(C(F)(F)F)cc3)c2)s1 [Example 252]
100 to 500	COc1cc(C(=O)O)ccc1NS(=O)(=O)c1ccc(-c2ccccc2C(F)(F)F)s1 [Example 213]
100 to 500	COc1cc(C(=O)O)ccc1NS(=O)(=O)c1csc(N2CCN(Cc3ccc(OC(F)(F)F)cc3)CC2)n1 [Example 308]
100 to 500	COc1ccc(OC(F)(F)F)cc1C#Cc1nc(S(=O)(=O)Nc2ccc(C(=O)O)cc2OC)cs1 [Example 402]
1000 to 100000	CCC[C@H]1CC[C@H](C2CC=C(c3ccc4c(c3)CN(S(=O)(=O)Nc3ccc(C(=O)O)cc3OC)C4)CC2)CC1 (stereo partly drawn) [Example 377, 3-methoxy-4-((5-((1S,1′s,4′S)-4′-propyl-[1,1′-bi(cyclohexan)]-3-en-4-yl)isoindoline)-2-sulfonamido)benzoic acid]

IC50 [nM]	SMILES
< 100	COc1cc(C(=O)O)ccc1NS(=O)(=O)c1coc(-c2ccc(C(F)(F)F)cc2)n1 [Example 414]
100 to 500	COc1cc(C(=O)O)ccc1NS(=O)(=O)c1ccc(-c2ccc(C3CCCCC3)cc2)s1 [Example 374]
> 100000	O=C(O)C1CCC(NS(=O)(=O)c2cnc(-c3ccc(F)cc3)s2)CC1 (stereo not drawn) [Example 66]
1000 to 100000	O=C(O)c1ccc(NS(=O)(=O)c2cnc(-c3ccc(F)cc3)s2)c2c1OCCO2 [Example 116]
1000 to 100000	COc1ccnc(C#Cc2nc(S(=O)(=O)Nc3ccc(C(=O)O)cc3OC)cs2)c1 [Example 245]
100 to 500	COc1cc(C(=O)O)ccc1NS(=O)(=O)c1csc(-c2ccc3cnccc3c2)n1 [Example 405]
< 100	COc1cc(C(=O)O)c(F)cc1NS(=O)(=O)c1coc(-c2ccc(C3=CCC(C)(C)CC3)cc2)n1 [Example 482]
100 to 500	COc1cc(C(=O)O)ccc1NS(=O)(=O)c1cnc(-c2ccc(C3=CCC4(CC3)CC4)cc2)s1 [Example 736]
100 to 500	COc1cc(C(=O)O)c(F)cc1NS(=O)(=O)c1cc(-c2ccc([C@H]3CC[C@H](C(F)(F)F)CC3)cc2)ccn1 [Example 641]
1000 to 100000	O=S(=O)(Nc1ccc(O)cc1)c1cnc(-c2ccc(F)cc2)s1 [Example 108]
1000 to 100000	COc1cc(C(=O)O)ccc1NS(=O)(=O)c1csc(N2CCN(C(=O)OC(C)C)CC2)n1 [Example 347]
100 to 500	O=C(O)c1ccc(NS(=O)(=O)c2ccc(Oc3ccc(S(=O)(=O)Nc4ccc(C(=O)O)cc4O)cc3)cc2)c(O)c1 [Example 172]
< 100	COc1cc(C(=O)O)ccc1NS(=O)(=O)c1csc(C#Cc2ccccc2C(F)(F)F)n1 [Example 225]
< 100	COc1cc(C(=O)O)c(F)cc1NS(=O)(=O)c1csc(-c2ccc([C@H]3CC[C@H](C(F)(F)F)CC3)c(F)c2C)n1 [Example 603]
< 100	COc1cc(C(=O)O)c(F)cc1NS(=O)(=O)c1csc(-c2ccc(C3=CCC(C)(C)CC3)cc2OC)n1 [Example 536]
1000 to 100000	COc1cc(C(=O)O)ccc1NS(=O)(=O)N1CCN(c2ccccc2)CC1 [Example 312]
100 to 500	COc1cc(C(=O)O)c(F)cc1NS(=O)(=O)c1csc(-c2ccc(C3=CCC(C)(C)CC3)cc2C2CC2)n1 [Example 544]
100 to 500	COc1cc(C(=O)O)ccc1NS(=O)(=O)c1csc(-c2c(C)ccc3ccccc23)n1 [Example 152]
< 100	O=C(O)c1cc(O)c(NS(=O)(=O)c2cnc(-c3ccc(F)cc3)s2)cc1F [Example 61]
< 100	COc1cc(C(=O)O)ccc1NS(=O)(=O)c1csc(C#Cc2cccc(F)c2)n1 [Example 203]
< 100	COc1cc(C(=O)O)c(F)cc1NS(=O)(=O)c1csc(-c2ccc(C3=CCC(C)(C)CC3)c(F)c2OC)n1 [Example 546]
100 to 500	COc1cc(C(=O)O)c(F)cc1NS(=O)(=O)c1ccc2sc(-c3ccc(-c4ccccc4)cc3)nc2c1 [Example 668]

IC50 [nM]	SMILES
1000 to 100000	O=C(O)c1ccc(NS(=O)(=O)c2cnc(-c3ccc(F)cc3)s2)c(OC(F)(F)F)c1 [Example 48]
1000 to 100000	COc1cc(C(=O)O)ccc1NS(=O)(=O)c1cnn(-c2ccc(F)cc2)c1 [Example 79]
100 to 500	COc1cc(C(=O)O)c(F)cc1NS(=O)(=O)c1csc(-c2ccc(C3CCC(C)(C)CC3)cc2C(C)C)n1 [Example 560]
100 to 500	COc1cc(C(=O)O)c(F)cc1NS(=O)(=O)c1cnc(-c2ccc(C3CCC(c4ccccc4)CC3)cc2)s1 (stereo not drawn) [Example 643]
< 100	COc1cc(C(=O)O)c(F)cc1NS(=O)(=O)c1csc(-c2ccc(-c3ccc(C4CC4)cc3C(F)(F)F)cc2C(F)(F)F)n1 [Example 757]
100 to 500	CC[C@H]1CC[C@H](c2ccc(-c3ncc(S(=O)(=O)Nc4cc(F)c(C(=O)O)cc4OC)s3)cc2)CC1 [Example 642]
1000 to 100000	COc1cc(C(=O)O)c(NC(C)=O)cc1NS(=O)(=O)c1csc(-c2ccc(C3CCC(C)(C)CC3)cc2C(F)(F)F)n1 [Example 695]
100 to 500	COc1cc(C(=O)O)c(F)cc1NS(=O)(=O)c1csc(C#Cc2cccc(Cl)c2)n1 [Example 234]
100 to 500	COc1cc(C(=O)O)c(F)cc1NS(=O)(=O)c1csc(-c2ccc(C3=CCC(C)(C)CC3)c(F)c2F)n1 [Example 520]
< 100	CCOc1c(C2=CCC(C)(C)CC2)ccc(-c2nc(S(=O)(=O)Nc3cc(F)c(C(=O)O)cc3OC)cs2)c1F [Example 568]
100 to 500	COc1cc(C(=O)O)c(F)cc1NS(=O)(=O)c1cnc(-c2ccc(C3=CCC(C(C)C)CC3)cc2)s1 (stereo not drawn) [Example 765]
< 100	COc1cc(C(=O)O)c(F)cc1NS(=O)(=O)c1cnc(-c2ccc(C3=CCC(C(F)(F)F)CC3)cc2)s1 (stereo not drawn) [Example 719]
500 to 1000	N#Cc1cc(C(=O)O)ccc1NS(=O)(=O)c1cnc(-c2ccc(F)cc2)s1 [Example 76]
100 to 500	COc1cc(C(=O)O)c(F)cc1NS(=O)(=O)c1csc(-c2ccc(C3=CCC(C)(C)CC3)cc2C(C)C)n1 [Example 557]
100 to 500	COc1cc(C(=O)O)c(F)cc1NS(=O)(=O)c1csc(-c2ccc([C@H]3CC[C@H](C(C)(C)C)CC3)c(OC(C)C)c2F)n1 [Example 598]
1000 to 100000	O=C(O)c1ccc2c(c1)CCCCN2S(=O)(=O)c1cnc(-c2ccc(F)cc2)s1 [Example 133]
1000 to 100000	O=C(O)c1cc2c(cc1F)N(S(=O)(=O)c1ccc(F)cc1)CCC2 [Example 14, 7-fluoro-1-((4-fluorophenyl)sulfonyl)-1,2,3,4-tetrahydroquinoline-6-carboxylic acid]
1000 to 100000	COc1nc(C(=O)O)ccc1NS(=O)(=O)c1cnc(-c2ccc(F)cc2)s1 [Example 74]
100 to 500	COc1cc(C(=O)O)ccc1NS(=O)(=O)c1csc(N2CCCC(Cc3ccc(C(F)(F)F)cc3)C2)n1 (stereo not drawn) [Example 283]
100 to 500	COc1cc(C(=O)O)ccc1NS(=O)(=O)N1Cc2nc(-c3ccc4c(c3)OCCO4)sc2C1 [Example 384]
< 100	CCOc1c(C2=CCC(C(F)(F)F)CC2)ccc(-c2nc(S(=O)(=O)Nc3cc(F)c(C(=O)O)cc3OC)cs2)c1F (stereo not drawn) [Example 816]

SMILES	IC50 [nM]
COc1cc(C(=O)O)c(F)cc1NS(=O)(=O)c1csc(-c2ccc(-c3ccc(C45CC6C[C@H](C4)C[C@H](C6)C5)cc3)cc2F)n1 [Example 760]	< 100

— patent US12384753B2, “17-beta-hydroxysteroid dehydrogenase type 13 inhibitors and methods of use thereof” (Enanta Pharmaceuticals, Inc., priority 2021, dated 2025)
